Laboratory results reported in patent publication US10512624B2, “Long-chain amphipathic dicarboxylic acids for treatment of diabetes type-1” (Syndromex Ltd., priority 2016, dated 2019).

Columns and labels:
hepatic gluconeogenesis = assay: Suppression of hepatic gluconeogenesis in STZ diabetic rats (RT-PCR, Western blot, cAMP kit); assay type: in vivo, rat
Protocol: (§1) Administering a combination of Medica16αα and insulin was performed by treating STZ diabetic rats (FBG >300 mg/dl) with oral MEDICA16αα(15 mg/kg b.i.d) for five consecutive days, then MEDICA16αα-responsive rats were further treated with MEDICA16αα(15 mg/kg b.i.d) for 10 additional consecutive days (“STZ/MEDICA Res”), and MEDICA16αα non-responsive rats (FBG >250 mg/dl) were further treated for 10 additional consecutive days with either insulin Neutral Protamine Hagedorn (NPH) (3 u/kg b.i.d subcutaneously) (“STZ/NPH”), or with insulin NPH (3 u/kg b.i.d subcutaneously in combination with oral MEDICA16αα(15 mg/kg b.i.d) (“STZ/MEDICA NPH”).
Sampled frozen tissue was homogenized (Polytron) in lysis buffer (50 mM Tris HCl, pH 8.0, 1% Triton X-100, 1 mM EGTA, 1 mM EDTA, 150 mM NaCl, 5 mM NaPPi, 50 mM NaF, 1 mM PMSF, 1 mM Na Vanadate, 40 nM bpVfan and protease inhibitor cocktail (Sigma)), and centrifuged for 15 min at 12,500 rpm.
(§2) Protein lysates were prepared in sodium dodecyl sulfate (SDS) sample buffer (62 mM Tris (pH 6.8), 2.3% SDS, […] mercaptoethanol, 10% glycerol), and were subjected to SDS-PAGE, electro-transferred onto cellulose nitrate membranes (Schleicher & Schuell) and probed with the indicated first antibody, followed by HRP-labeled second antibody. Protein concentration was determined by BCA (Thermo Scientific). Bands were detected by ECL, and the intensity of individual bands was determined by densitometry using ImageJ 1.48 v software.
Sampled frozen tissue was homogenized (Polytron) in lysis buffer (50 mM Hepes (pH 7.4), 150 mM NaCl, 10% Glycerol, 1.5 mM MgCl2, 1 mM EGTA, 1% Triton, 50 mM β-glycerolphosphate, 25 mM NaF, 1 mM Na-vanadate, 40 nM bpVphen, protease inhibitor mix (Sigma) and 17.5 mg/ml octyl beta-D-glucopyranoside (Sigma)). Lysates were kept on ice for 30 min and centrifuged at 12000 rpm for 15 min. Lysates ([…]) were incubated for 4 h with protein A/G beads (Santa Cruz Biotechnology) pre-loaded with the indicated antibody. The immune-precipitate was rinsed 3 times with washing buffer (20 mM Hepes (pH 7.4), 150 mM NaCl, 0.1% Tx-100, 10% glycerol), re-suspended in SDS sample buffer, boiled for 8 min, and analyzed by SDS-PAGE.
Total RNA was prepared using the TRI reagent (Sigma Aldrich). First-strand cDNA used as template was synthesized by reverse transcription using oligo(dT) as primer and the Reverse-iTMAX First Strand Kit (ABgene, Epson). Glucose-6-phosphatase (G6Pase) and phosphoenolpyruvate carboxykinase (PEPCK) transcripts normalized by tubulin were quantified by real-time PCR (Rotor Gene RG-3000A) using SYBER green MasterMix (Absolute Syber Green ROX Mix, ABgene) and the following primers: […]
Pancreas and plasma insulin and glucagon content were determined by insulin (Millipore, Cat #RI-13K) and glucagon (Millipore, Cat # GL-32K) radioimmunoassay (RIA) kits. cAMP levels were measured by cAMP kit (Arbor Assays, DetectX Cat # K019-H1).

Soleus GLUT4 = assay: Activation of Soleus GLUT4 in STZ diabetic rats; assay type: in vivo, rat
Protocol: as §1
Muscle tissue was fixed with 4% buffered formaldehyde for 4 hours. Paraffin sections (5 μm) were rehydrated and antigen retrieved in citrate buffer using a Biocare pressure cooker, followed by 5 minutes blocking in peroxidase and 10 minutes of protein block (Cas-Block). The sample was incubated with anti-GLUT4 antibody (AbCam ab65267), followed by polyclonal anti-mouse IgG. DAB substrate buffer was then added to achieve coloration. The specimens were subsequently dehydrated with ethanol, cleared with xylene and then mounted on glass cover slips. Digital images were obtained using Nikon Eclipse TE-2000E microscope equipped with Olympus DP70 camera. Image analysis was carried out using ImageJ software. […]
as §2

NOD mice = assay: Hyperinsulinemic-euglycemic clamp in pre-diabetic NOD mice; assay type: in vivo, mouse
Protocol: Clamps were carried out according to Vanderbilt Mouse Metabolic Phenotyping Center, Vanderbilt University School of Medicine protocol (28), with minor modifications, using HPLC-purified ^3H-glucose (specific activity 13.5 Ci/mmol, MT-914 Moravek Biochemicals, priming dose of 1 μC followed by continuous infusion of 0.05 μCi·min-1 for a 90 min equilibration period), HumulinR insulin (Eli Lilly, 4 mU·kg-1. min-1), and 10% glucose solution.
Clamps were carried out in conscious 12-14-week old NOD female mice fasted for 3 hours, 3 days following catheters' insertion. […] Plasma glucose specific activity was verified on 80, 90, 100, and 120 min following insulin infusion. On 120 min, 12-μCi bolus of ^14C-2-deoxyglucose (DG) (specific activity 274.6 mCi/mmol, MC-392 Moravek Biochemicals) was injected, followed by blood sampling on 122, 125, 130, 135, and 145 min, to determine blood glucose and 2-deoxyglucose activity.
Upon sacrifice, gastrocnemius, superficial vastus lateralis, and soleus muscles were removed, immediately frozen in liquid nitrogen, and stored at −70° C. until further analysis. Glucose appearance (Ra) and disappearance (Rd) were determined using Steele non-steady-state equations. Endogenous glucose production (EndoRt) was determined by subtracting the glucose infusion rate (GIR) from total glucose turnover (Rt). Glucose metabolic index in muscle (Rg) was calculated by the equation:
[formula] where 2[^14C]DGPtissue is the 2[^14C]DG radioactivity in muscle normalized to tissue weight (dpm/g tissue), AUC 2[^14C]DGplasma is the area under the plasma 2[^14C]DG disappearance curve (dpm·min·m1-1), and [arterial glucose] is the average blood glucose (mmol/1) during the 80-120 min clamp period. Immuno-Histochemistry

## CC(C)(CCCCCCCCCCCCC(C)(C)C(=O)O)C(=O)O [MEDICA16αα, 2,2,15,15-tetramethylhexadecane-1,16-dioic acid]
Hepatic gluconeogenesis
  hepatic cAMP levels: suppressing hepatic cAMP levels
  hepatic phospho-ACC(Ser79) (AMPK activation): phosphorylation of its downstream ACC(Ser79) substrate
Soleus GLUT4
  soleus AKT (phospho-Akt(Ser473)): activated
  soleus AMPK (phospho-ACC(Ser79)): activated
  soleus phospho-AS160(Thr642): increase in phosphorylated AS160(Thr642)
NOD mice
  clamped plasma insulin: decrease
  deoxyglucose uptake into soleus and gastrocnemius muscles: insulin-induced deoxyglucose uptake
  endogenous glucose production: insulin-induced decrease
  increase in glucose infusion rate (GIR): 37%
  total body glucose turnover: increase
